Assays:
[1] = target: T1, Sigma non-opioid intracellular receptor 1 (Homo sapiens, UniProt Q99720); test: Displacement of [3H](+)-pentazocine from sigma 1 receptor in HEK293 cells assessed as inhibition constant by radioligand competition binding assay; type: cell-based
[2] = target: T2, Sigma intracellular receptor 2 (Homo sapiens, UniProt Q5BJF2); test: Displacement of [3H](+)-ditolylguanidine from human sigma 2 receptor transfected in human HEK293T cells assessed as inhibition constant in presence of (+)-pentazocine by radioligand competition binding assay; type: cell-based, HEK293
T2 sequence (Q5BJF2 whole entry): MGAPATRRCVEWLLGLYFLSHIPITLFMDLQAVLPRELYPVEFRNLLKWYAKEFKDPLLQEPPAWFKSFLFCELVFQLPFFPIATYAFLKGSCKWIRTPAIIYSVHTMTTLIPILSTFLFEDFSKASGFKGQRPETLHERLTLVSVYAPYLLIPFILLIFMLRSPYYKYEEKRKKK

[3] = target: T2, Sigma intracellular receptor 2; test: Binding affinity to sigma 2 receptor (unknown origin) assessed as inhibition constant
[4] = target: T1, Sigma non-opioid intracellular receptor 1; test: Binding affinity to sigma 1 receptor (unknown origin) assessed as inhibition constant
[5] = target: T3, Sigma intracellular receptor 2 (Rattus norvegicus, UniProt Q5U3Y7); test: biochemical
T3 sequence (Q5U3Y7 whole entry): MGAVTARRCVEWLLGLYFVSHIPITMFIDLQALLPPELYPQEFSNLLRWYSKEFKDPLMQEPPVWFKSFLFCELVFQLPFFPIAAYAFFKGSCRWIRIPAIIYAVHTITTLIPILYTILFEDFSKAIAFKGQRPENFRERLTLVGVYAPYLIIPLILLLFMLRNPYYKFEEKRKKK
Description: Binding affinity to sigma 2 receptor in rat PC12 cells assessed as inhibition constant

T1 sequence (Q99720 whole entry): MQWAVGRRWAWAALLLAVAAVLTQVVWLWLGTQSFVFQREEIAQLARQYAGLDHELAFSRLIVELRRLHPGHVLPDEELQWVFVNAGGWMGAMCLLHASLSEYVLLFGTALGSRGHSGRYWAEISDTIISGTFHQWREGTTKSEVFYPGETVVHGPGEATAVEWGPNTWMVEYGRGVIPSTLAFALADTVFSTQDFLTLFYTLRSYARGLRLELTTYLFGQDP

CCCCN1C[C@@H]2CN(c3ccc4c(c3)[C@@H]3C[C@H]4CCN3C(=O)OCc3ccccc3)C[C@@H]2C1
Ki [1]: 50.2 nM | Ki [2]: 28.4 nM

O=C(OCc1cccc(F)c1)N1CC[C@@H]2C[C@H]1c1cc(N3CCN(CCCF)CC3)ccc12
Ki [1]: 17.2 nM | Ki [2]: 21.2 nM

O=C(OCc1ccccc1)N1CC[C@@H]2C[C@H]1c1cc(N3CCCN(CCCF)CC3)ccc12
Ki [1]: 11.7 nM | Ki [2]: 22.2 nM

O=C(OCc1ccccc1)N1CC[C@@H]2C[C@H]1c1cc(N3CC4CCC(C3)N4CCCF)ccc12
Ki [1]: 70.4 nM | Ki [2]: 17.7 nM

O=C(OCc1ccccc1)N1CC[C@H]2C[C@@H]1c1cc(N3CCN(CCO)CC3)ccc12
Ki [1]: 1740 nM | Ki [2]: 201 nM

O=C(OCc1ccccc1)N1CC[C@H]2C[C@@H]1c1cc(N3CCN(CCCF)CC3)ccc12
Ki [1]: 81.7 nM | Ki [2]: 24.3 nM

CN1CC(C(=O)N2CCN(c3ccc4c(c3)[C@@H]3C[C@H]4CCN3C(=O)OCc3ccccc3)CC2)C1
Ki [3]: 35.2 nM | Ki [4]: 53.1 nM

CNCCN1CCN(c2ccc3c(c2)[C@@H]2C[C@H]3CCN2C(=O)OCc2ccccc2)CC1
Ki [3]: 60.9 nM | Ki [4]: 173 nM

O=C(OCc1ccc(Cl)cc1)N1CC[C@@H]2C[C@H]1c1cc(N3CCN(CCCF)CC3)ccc12
Ki [1]: 94.9 nM | Ki [2]: 27.1 nM

CN(C)CCCOC1CN(c2ccc3c(c2)[C@@H]2C[C@H]3CCN2C(=O)OCc2ccccc2)C1
Ki [1]: 118 nM | Ki [2]: 57.8 nM

O=C(OCc1ccccc1)N1CC[C@@H]2C[C@H]1c1cc(N3CCN(CCCF)CC3)ccc12
Ki [3]: 9.2 nM | Ki [1]: 37.7 nM | Ki [2]: 9.2 nM

Clc1ccc2c(c1)C1CC2CCCN1CCc1ccccc1 (configuration not stated)
Ki [5]: 248 nM

O=C(OCc1ccccc1)N1CC[C@@H]2C[C@H]1c1cc(N3CCN(CCO)CC3)ccc12
Ki [1]: 510 nM | Ki [2]: 75.3 nM

CN1CC(CN2CCN(c3ccc4c(c3)[C@@H]3C[C@H]4CCN3C(=O)OCc3ccccc3)CC2)C1
Ki [3]: 24.4 nM | Ki [1]: 94.1 nM

O=C(/C=C/c1ccccc1)N1CC[C@@H]2C[C@H]1c1cc(N3CCN(CCCF)CC3)ccc12
Ki [3]: 53.3 nM | Ki [1]: 185 nM

CNCCC(=O)N1CCN(c2ccc3c(c2)[C@@H]2C[C@H]3CCN2C(=O)OCc2ccccc2)CC1
Ki [3]: 110 nM | Ki [4]: 189 nM

O=C(OCc1ccc(C(F)(F)F)cc1)N1CC[C@@H]2C[C@H]1c1cc(N3CCN(CCCF)CC3)ccc12
Ki [1]: 67.9 nM | Ki [2]: 20.9 nM

CN(C)CCN1CCN(c2ccc3c(c2)[C@@H]2C[C@H]3CCN2C(=O)OCc2ccccc2)CC1
Ki [3]: 52 nM | Ki [4]: 83.4 nM

O=C(CCc1ccccc1)N1CC[C@@H]2C[C@H]1c1cc(N3CCN(CCCF)CC3)ccc12
Ki [3]: 397 nM | Ki [1]: 57.6 nM

O=C(OCc1ccccc1)N1CC[C@@H]2C[C@H]1c1cc(N3CCN(C4CCC4)CC3)ccc12
Ki [1]: 32.9 nM | Ki [2]: 12.4 nM

O=C(OCc1ccccc1)N1CC[C@H]2C[C@@H]1c1cc(N3CCN(C4CCC4)CC3)ccc12
Ki [1]: 50.7 nM | Ki [2]: 34.3 nM

CN(C)C1CCN(c2ccc3c(c2)[C@@H]2C[C@H]3CCN2C(=O)OCc2ccccc2)CC1
Ki [3]: 31.5 nM | Ki [1]: 140 nM

COCCN1CCN(c2ccc3c(c2)[C@H]2C[C@@H]3CCN2C(=O)OCc2ccccc2)CC1
Ki [1]: 312 nM | Ki [2]: 129 nM

COCCN1CCN(c2ccc3c(c2)[C@@H]2C[C@H]3CCN2C(=O)OCc2ccccc2)CC1
Ki [1]: 193 nM | Ki [2]: 47 nM

CCN(CC)C(=O)CCN1CCN(c2ccc3c(c2)[C@@H]2C[C@H]3CCN2C(=O)OCc2ccccc2)CC1
Ki [3]: 12.4 nM | Ki [4]: 197 nM

COCCCN1CCN(c2ccc3c(c2)[C@@H]2C[C@H]3CCN2C(=O)OCc2ccccc2)CC1
Ki [3]: 8 nM | Ki [4]: 59.2 nM

— ChEMBL document CHEMBL5620364, “Structure-affinity relationships of stereoisomers of norbenzomorphan-derived σ2R/TMEM97 modulators” (Eur J Med Chem, 2023)
